Test results from ChEMBL document CHEMBL1126424, “Preparation of the enantiomers of the novel CA-sensitizer EMD 53 998” (Bioorg Med Chem Lett, 1992).

How the values were obtained:
[1] = organism: Cavia porcellus; assay: Increasing force in skinned fibers at constant buffered Ca-concentration; assay type: functional
[2] = biological target: Phosphodiesterase 3 (Homo sapiens, UniProt Q14432+Q13370); assay: Inhibition of guinea pig heart Phosphodiesterase 3; assay type: protein assay, Cavia porcellus; conditions: target entry is the homologue from another species

EC50 [1] [nM]	IC50 [2] [nM]	SMILES
4800	60	COc1ccc(C(=O)N2CCCc3cc(C4=NNC(=O)SC4C)ccc32)cc1OC (stereo in doubt; form 1)
1700	1940	COc1ccc(C(=O)N2CCCc3cc(C4=NNC(=O)SC4C)ccc32)cc1OC (stereo in doubt; form 3)
> 100000	50	COc1ccc(C(=O)N2CCCc3cc(C4=NNC(=O)SC4C)ccc32)cc1OC (stereo in doubt; form 2)
